Reference: patent US20240116985A1, “STAPLED PEPTIDES AND METHODS THEREOF” (priority 2020, published 2024)
Where two headings read alike, the source gives them in different places.

Tests used:
[1] = target: T1, full-length beta-Catenin (Uniprot ID P35222) (Homo sapiens, UniProt P35222); assay: Fluorescence polarization IC50 (beta-catenin / 5FAM-TCF4 10-53 competition); format: binding
T1 construct: 10 nM full-length beta-Catenin (Uniprot ID P35222)
T1 sequence (P35222 1-781): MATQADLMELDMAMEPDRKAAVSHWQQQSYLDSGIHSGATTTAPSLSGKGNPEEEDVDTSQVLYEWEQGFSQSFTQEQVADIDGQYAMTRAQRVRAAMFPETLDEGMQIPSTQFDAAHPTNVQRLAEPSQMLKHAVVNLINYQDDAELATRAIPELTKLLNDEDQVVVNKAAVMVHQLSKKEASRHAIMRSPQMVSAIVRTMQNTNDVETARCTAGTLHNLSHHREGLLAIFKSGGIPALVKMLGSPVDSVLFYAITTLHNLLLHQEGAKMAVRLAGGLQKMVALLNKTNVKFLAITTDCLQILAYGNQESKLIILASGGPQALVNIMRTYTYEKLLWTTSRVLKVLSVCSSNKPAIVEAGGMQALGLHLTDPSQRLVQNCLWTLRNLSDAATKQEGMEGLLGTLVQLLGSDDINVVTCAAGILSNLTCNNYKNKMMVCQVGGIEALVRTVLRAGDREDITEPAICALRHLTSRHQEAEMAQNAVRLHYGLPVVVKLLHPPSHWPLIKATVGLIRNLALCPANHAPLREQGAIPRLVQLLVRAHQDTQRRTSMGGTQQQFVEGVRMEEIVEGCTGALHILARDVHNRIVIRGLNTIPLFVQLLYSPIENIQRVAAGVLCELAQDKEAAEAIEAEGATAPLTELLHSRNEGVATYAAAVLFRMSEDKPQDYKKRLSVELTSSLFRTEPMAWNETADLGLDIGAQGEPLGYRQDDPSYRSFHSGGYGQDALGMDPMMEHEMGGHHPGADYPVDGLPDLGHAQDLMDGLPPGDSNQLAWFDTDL

CHI Log D procedure = format: physicochemical; conditions: for chromatographic logD: pH 7.4, CHI Log D; for CHI Log D: pH 7.4
[2] = fluorescence polarization, read-out: beta-Catenin FP IC50

Row | Structure (SMILES) | IC50 [1, 2] | chromatographic logD (CHI Log D procedure) | IC50 ([1]; read-out: FP EC50) | CHI Log D (CHI Log D procedure)
1 | CC[C@H](C)[C@@H]1NC(=O)[C@H](CC(=O)O)NC(=O)[C@]2(CC=CCCCC3(CCCC=CCCCCCC[C@@](C)(C(=O)N[C@@H](Cc4ccccc4)C(=O)N[C@@H](Cc4csc5ccccc45)C(=O)N[C@@H](CCN)C(N)=O)NC(=O)[C@H](CCC(N)=O)NC(=O)[C@H](Cc4ccccc4)NC(=O)[C@H](C)NC(=O)[C@H](C)NC(=O)[C@H](CC(=O)O)NC(=O)[C@H](CC(=O)O)NC3=O)NC1=O)CCCN2C(C)=O (stereo partly drawn) [I-482, Ac-PL3-Asp-Ile-B5-Asp-Asp-Ala-Ala-Phe-Gln-S8-Phe-BztA-Dab-NH2] | 118 nM | 2.48 |  | 
2 | CC[C@H](C)[C@@H]1NC(=O)[C@H](CC(=O)O)NC(=O)[C@]2(CC=CCCCC3(CCCC=CCCCCCC[C@@](C)(C(=O)N[C@@H](Cc4ccccc4)C(=O)N[C@@H](Cc4csc5ccccc45)C(=O)N[C@@H](CC(N)=O)C(N)=O)NC(=O)[C@H](CCC(N)=O)NC(=O)[C@H](Cc4ccccc4)NC(=O)[C@H](C)NC(=O)[C@H](C)NC(=O)[C@H](CCC(=O)O)NC(=O)[C@H](CC(=O)O)NC3=O)NC1=O)CCCN2C(C)=O (stereo partly drawn) [I-495, Ac-PL3-Asp-Ile-B5-Asp-Glu-Ala-Ala-Phe-Gln-S8-Phe-BztA-Asn-NH2] | 181 nM | 2.35 |  | 
3 | CC(=O)N1CCC[C@]12CC=CCCCC1(CCCC=CCCCCCC[C@@](C)(C(=O)N[C@@H](Cc3ccccc3)C(=O)N[C@@H](Cc3csc4ccccc34)C(=O)N[C@@H](CCC(N)=O)C(N)=O)NC(=O)[C@H](CC(N)=O)NC(=O)[C@H](Cc3ccccc3)NC(=O)[C@H](C)NC(=O)[C@H](C)NC(=O)[C@H](CC(=O)O)NC(=O)[C@H](CC(=O)O)NC1=O)NC(=O)[C@H](CCC(C)C)NC(=O)[C@H](CC(=O)O)NC2=O (stereo partly drawn) [I-547, Ac-PL3-Asp-hLeu-B5-Asp-Asp-Ala-Ala-Phe-Asn-S8-Phe-BztA-Gln-NH2] | 43 nM |  | 43 nM | 2.45
4 | CC[C@H](C)[C@@H]1NC(=O)[C@H](CC(=O)O)NC(=O)[C@]2(CC=CCCCC3(CCCC=CCCCCCC[C@@](C)(C(=O)N[C@@H](Cc4ccsc4)C(=O)N[C@@H](Cc4csc5ccccc45)C(=O)N[C@@H](CCC(N)=O)C(N)=O)NC(=O)[C@H](CC(N)=O)NC(=O)[C@H](Cc4ccccc4)NC(=O)[C@H](C)NC(=O)[C@H](C)NC(=O)[C@H](CC(=O)O)NC(=O)[C@H](CC(=O)O)NC3=O)NC1=O)CCCN2C(C)=O (stereo partly drawn) [I-552, Ac-PL3-Asp-Ile-B5-Asp-Asp-Ala-Ala-Phe-Asn-S8-3Thi-BztA-Gln-NH2] | 15.5 nM |  | 15.5 nM | 2.334
5 | CC[C@H](C)[C@@H]1NC(=O)[C@H](CC(=O)O)NC(=O)[C@]2(CC=CCCCC3(CCCC=CCCCCCC[C@@](C)(C(=O)N[C@@H](Cc4ccccc4OC)C(=O)N[C@@H](Cc4csc5ccccc45)C(=O)N[C@@H](Cc4c[nH]cn4)C(N)=O)NC(=O)[C@H](CC(N)=O)NC(=O)[C@H](Cc4ccccc4)NC(=O)[C@H](C)NC(=O)[C@H](C)NC(=O)[C@H](CC(=O)O)NC(=O)[C@H](CC(=O)O)NC3=O)NC1=O)CCCN2C(C)=O (stereo partly drawn) [I-553, Ac-PL3-Asp-Ile-B5-Asp-Asp-Ala-Ala-Phe-Asn-S8-2OMeF-BztA-His-NH2] | 61 nM |  | 61 nM | 2.398
6 | CC(=O)N1CCC[C@]12CC=CCCCC1(CCCC=CCCCCCC[C@@](C)(C(=O)N[C@@H](Cc3ccccc3)C(=O)N[C@@H](Cc3csc4ccccc34)C(=O)N[C@@H](CCC(N)=O)C(N)=O)NC(=O)[C@H](CCC(N)=O)NC(=O)[C@H](Cc3ccccc3)NC(=O)[C@H](C)NC(=O)[C@H](C)NC(=O)[C@H](CC(=O)O)NC(=O)[C@H](CC(=O)O)NC1=O)NC(=O)[C@H](CC(C)C)NC(=O)[C@H](CC(=O)O)NC2=O (stereo partly drawn) [I-558, Ac-PL3-Asp-Leu-B5-Asp-Asp-Ala-Ala-Phe-Gln-S8-Phe-BztA-Gln-NH2] | 56 nM |  | 56 nM | 2.308

Continued, values first:

Row | IC50 [1, 2] | chromatographic logD (CHI Log D procedure) | IC50 ([1]; read-out: FP EC50) | CHI Log D (CHI Log D procedure) | Structure (SMILES)
7 | 196 nM |  | 196 nM | 2.019 | COc1ccccc1C[C@H](NC(=O)[C@]1(C)CCCCCCC=CCCCC2(CCCC=CC[C@]3(CCCN3C(C)=O)C(=O)N[C@@H](CC(=O)O)C(=O)N[C@@H](C)C(=O)N2)C(=O)N[C@@H](CC(=O)O)C(=O)N[C@@H](CCC(=O)O)C(=O)N[C@@H](C)C(=O)N[C@@H](C)C(=O)N[C@@H](Cc2ccccc2)C(=O)N[C@@H](CCC(N)=O)C(=O)N1)C(=O)N[C@@H](Cc1csc2ccccc12)C(=O)N[C@@H](CCC(N)=O)C(N)=O (stereo partly drawn) [I-525, Ac-PL3-Asp-Ala-B5-Asp-Glu-Ala-Ala-Phe-Gln-S8-2OMeF-BztA-Gln-NH2]
8 | 56 nM |  | 56 nM | 2.049 | COc1ccccc1C[C@H](NC(=O)[C@]1(C)CCCCCCC=CCCCC2(CCCC=CC[C@]3(CCCN3C(C)=O)C(=O)N[C@@H](CC(=O)O)C(=O)N[C@@H](C)C(=O)N2)C(=O)N[C@@H](CC(=O)O)C(=O)N[C@@H](CCC(=O)O)C(=O)N[C@@H](C)C(=O)N[C@@H](C)C(=O)N[C@@H](Cc2ccccc2)C(=O)N[C@@H](CCC(N)=O)C(=O)N1)C(=O)N[C@@H](Cc1csc2ccccc12)C(=O)N[C@@H](CCC(N)=O)C(N)=O (stereo partly drawn) [I-526, Ac-PL3-Asp-Ala-B5-Asp-Glu-Ala-Ala-Phe-Gln-S8-2OMeF-BztA-Gln-NH2]
9 | 98 nM |  | 98 nM | 2.376 | CC[C@H](C)[C@@H]1NC(=O)[C@H](CC(=O)O)NC(=O)[C@]2(CC=CCCCC3(CCCC=CCCCCCC[C@@](C)(C(=O)N[C@@H](Cc4ccccc4OC)C(=O)N[C@@H](Cc4csc5ccccc45)C(=O)N[C@@H](CCC(N)=O)C(N)=O)NC(=O)[C@H](CCC(N)=O)NC(=O)[C@H](Cc4ccccc4)NC(=O)[C@H](C)NC(=O)[C@H](C)NC(=O)[C@H](CCC(=O)O)NC(=O)[C@H](CC(=O)O)NC3=O)NC1=O)CCCN2C(C)=O (stereo partly drawn) [I-527, Ac-PL3-Asp-Ile-B5-Asp-Glu-Ala-Ala-Phe-Gln-S8-2OMeF-BztA-Gln-NH2]
10 | 63 nM |  | 63 nM | 2.395 | CC[C@H](C)[C@@H]1NC(=O)[C@H](CC(=O)O)NC(=O)[C@]2(CC=CCCCC3(CCCC=CCCCCCC[C@@](C)(C(=O)N[C@@H](Cc4ccccc4OC)C(=O)N[C@@H](Cc4csc5ccccc45)C(=O)N[C@@H](CCC(N)=O)C(N)=O)NC(=O)[C@H](CCC(N)=O)NC(=O)[C@H](Cc4ccccc4)NC(=O)[C@H](C)NC(=O)[C@H](C)NC(=O)[C@H](CCC(=O)O)NC(=O)[C@H](CC(=O)O)NC3=O)NC1=O)CCCN2C(C)=O (stereo partly drawn) [I-528, Ac-PL3-Asp-Ile-B5-Asp-Glu-Ala-Ala-Phe-Gln-S8-2OMeF-BztA-Gln-NH2]
11 | 71 nM |  | 71 nM | 2.291 | CC[C@H](C)[C@@H]1NC(=O)[C@H](CC(=O)O)NC(=O)[C@]2(CC=CCCCC3(CCCC=CCCCCCC[C@@](C)(C(=O)N[C@@H](Cc4ccccc4OC)C(=O)N[C@@H](Cc4csc5ccccc45)C(=O)N[C@@H](CCC(N)=O)C(N)=O)NC(=O)[C@H](CC(N)=O)NC(=O)[C@H](Cc4ccccc4)NC(=O)[C@H](C)NC(=O)[C@H](C)NC(=O)[C@H](CC(=O)O)NC(=O)[C@H](CC(=O)O)NC3=O)NC1=O)CCCN2C(C)=O (stereo partly drawn) [I-549, Ac-PL3-Asp-Ile-B5-Asp-Asp-Ala-Ala-Phe-Asn-S8-2OMeF-BztA-Gln-NH2]
